From patent US20230295212A1 (ROME Therapeutics, Inc., priority 2022, published 2023)

Molecular target: T1, LINE1 reverse transcriptase (Homo sapiens, UniProt O00370)
T1 construct: expressed in transfected cells; host or cells: HeLa Tet-On 3G (Takara, cat no 631183)
Experiment: Stable artificial-intron Cis LINE1 reporter assay (HeLa Tet-On 3G, Firefly luciferase)
Format: cell-based
Conditions: HeLa L1 artificial-intron reporter cells, doxycycline 500 ng/mL, 72 h, class symbols
Summary of the method: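 HeLa Tet-On 3G clone stably carrying a bi-directional doxycycline-inducible artificial-intron LINE1 reporter, plated at 8,000 cells/well onto serially diluted compound. Expression induced with 500 ng/mL doxycycline (final); Firefly luciferase luminescence (Dual-Glo) read 72 h after plating as LINE1 activity.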

T1 sequence (O00370 whole entry, looked up): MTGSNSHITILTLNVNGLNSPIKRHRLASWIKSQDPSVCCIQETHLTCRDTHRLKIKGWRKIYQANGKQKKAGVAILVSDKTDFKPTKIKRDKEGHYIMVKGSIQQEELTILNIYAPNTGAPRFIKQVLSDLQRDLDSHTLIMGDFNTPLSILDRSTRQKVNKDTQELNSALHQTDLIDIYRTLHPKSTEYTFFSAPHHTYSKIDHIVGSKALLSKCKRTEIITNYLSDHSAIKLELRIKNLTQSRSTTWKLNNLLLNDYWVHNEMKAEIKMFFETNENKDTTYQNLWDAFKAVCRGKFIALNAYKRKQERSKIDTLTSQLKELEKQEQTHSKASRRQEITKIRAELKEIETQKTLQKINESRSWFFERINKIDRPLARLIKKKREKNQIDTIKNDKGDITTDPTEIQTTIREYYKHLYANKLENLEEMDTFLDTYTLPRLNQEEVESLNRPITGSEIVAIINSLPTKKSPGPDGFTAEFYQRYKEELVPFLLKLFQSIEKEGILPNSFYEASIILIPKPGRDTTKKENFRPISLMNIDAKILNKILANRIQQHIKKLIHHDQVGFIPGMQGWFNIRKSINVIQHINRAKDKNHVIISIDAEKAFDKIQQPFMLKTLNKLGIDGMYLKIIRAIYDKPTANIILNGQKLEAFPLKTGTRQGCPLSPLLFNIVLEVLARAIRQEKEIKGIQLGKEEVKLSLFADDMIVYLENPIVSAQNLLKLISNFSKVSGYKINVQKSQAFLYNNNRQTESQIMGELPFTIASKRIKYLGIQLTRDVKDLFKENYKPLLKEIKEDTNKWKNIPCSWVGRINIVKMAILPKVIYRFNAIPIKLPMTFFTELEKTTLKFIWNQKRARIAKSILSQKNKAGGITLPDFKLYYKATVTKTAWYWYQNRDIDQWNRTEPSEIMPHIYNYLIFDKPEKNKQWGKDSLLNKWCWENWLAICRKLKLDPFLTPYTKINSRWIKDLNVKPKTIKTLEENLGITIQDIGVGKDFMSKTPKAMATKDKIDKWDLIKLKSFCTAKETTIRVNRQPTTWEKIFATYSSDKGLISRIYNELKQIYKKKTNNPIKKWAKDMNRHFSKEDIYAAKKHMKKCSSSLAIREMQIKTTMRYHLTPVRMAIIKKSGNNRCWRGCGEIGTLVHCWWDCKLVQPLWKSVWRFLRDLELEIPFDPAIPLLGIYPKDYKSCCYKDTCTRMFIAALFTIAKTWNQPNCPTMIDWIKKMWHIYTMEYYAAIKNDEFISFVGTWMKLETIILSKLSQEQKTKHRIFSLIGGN

IC50 [nM]	Compound
50 to 100	[N-]=[N+]=N[C@]1(CO)O[C@@H](c2cc(I)c3c(N)ncnn23)C[C@@H]1O [Compound 161, (2R,3S,5R)-5-(4-amino-5-iodopyrrolo[2,1-f][1,2,4]triazin-7-yl)-2-azido-2-(hydroxymethyl)tetrahydrofuran-3-ol]
250 to 1000	C=C=C[C@]1(CO)O[C@@H](n2cnc3c(N)nc(F)nc32)C[C@@H]1O [Compound 164, (2R,3S,5R)-5-(6-amino-2-fluoropurin-9-yl)-2-(hydroxymethyl)-2-(propa-1,2-dien-1-yl)oxolan-3-ol]
≤ 50	Nc1ccn([C@@H]2O[C@@](CO)(CBr)[C@@H](O)[C@@H]2F)c(=O)n1 [Compound 172]
250 to 1000	CC(C)C(=O)OC[C@@]1(CCl)O[C@@H](n2cc(F)c(N)nc2=O)[C@@H](F)[C@@H]1OC(=O)C(C)C [Compound 173, (2R,3R,4S,5R)-5-(4-amino-5-fluoro-2-oxopyrimidin-1(2H)-yl)-2-(chloromethyl)-4-fluoro-2-((isobutyryloxy)methyl)tetrahydrofuran-3-yl isobutyrate]
≤ 50	[2H]C([2H])(Cl)[C@]1(CO)O[C@@H](n2cc(F)c(N)nc2=O)[C@@H](F)[C@@H]1O [Compound 175, 4-amino-1-((2R,3S,4R,5R)-5-(chloromethyl-d2)-3-fluoro-4-hydroxy-5-(hydroxymethyl)tetrahydrofuran-2-yl)-5-fluoropyrimidin-2(1H)-one]
> 1000	Cc1cn([C@@H]2O[C@@](CO)(CCl)[C@@H](O)[C@@H]2F)c(=O)[nH]c1=O [Compound 176]
> 1000	Nc1nc(=O)n([C@@H]2OC(CO)(CO)[C@@H](O)[C@@H]2F)cc1F [Compound 177, 4-amino-5-fluoro-1-((2R,3S,4R)-3-fluoro-4-hydroxy-5,5-bis(hydroxymethyl)tetrahydrofuran-2-yl) pyrimidin-2(1H)-one]
50 to 100	Cc1cn([C@@H]2O[C@@](CO)(N=[N+]=[N-])[C@@H](O)[C@@H]2F)c(=O)[nH]c1=O [Compound 178, 1-((2R,3S,4R,5R)-5-azido-3-fluoro-4-hydroxy-5-(hydroxymethyl)tetrahydrofuran-2-yl)-5-methylpyrimidine-2,4(1H,3H)-dione]
> 1000	O=c1[nH]c(=O)n([C@@H]2O[C@@](CO)(CCO)[C@@H](O)[C@@H]2F)cc1F [Compound 179, 5-fluoro-1-((2R,3S,4R,5R)-3-fluoro-4-hydroxy-5-(2-hydroxyethyl)-5-(hydroxymethyl)tetrahydrofuran-2-yl) pyrimidine-2,4(1H,3H)-dione]
> 1000	Cc1cn([C@H]2C[C@H](F)[C@@](C)(CO)O2)c(=O)[nH]c1=O [Compound 180, 1-((2R,4S,5R)-4-fluoro-5-(hydroxymethyl)-5-methyltetrahydrofuran-2-yl)-5-methylpyrimidine-2,4(1H,3H)-dione]

Same assay, conditions: HeLa L1 artificial-intron reporter cells, doxycycline 500 ng/mL, 72 h, numeric bounds

IC50 [nM]	Compound
> 30000	CC(O)[C@]1(CO)O[C@@H](n2cc(F)c(=O)[nH]c2=O)[C@@H](F)[C@@H]1O (stereo partly drawn) [Compound 162, 5-fluoro-1-[(2R,3S,4R,5S)-3-fluoro-4-hydroxy-5-(1-hydroxyethyl)-5-(hydroxymethyl)oxolan-2-yl]-3H-pyrimidine-2,4-dione]
> 30000	O=c1[nH]c(=O)n([C@@H]2O[C@@](CO)(CCl)[C@@H](O)[C@@H]2F)cc1F [Compound 163, 1-[(2R,3S,4R,5R)-5-(chloromethyl)-3-fluoro-4-hydroxy-5-(hydroxymethyl)oxolan-2-yl]-5-fluoro-3H-pyrimidine-2,4-dione]
> 30000	N#C[C@]1(CO)O[C@@H](n2cc(F)c(N)nc2=O)[C@@H](F)[C@@H]1O [Compound 166]
> 30000	CC(C)C(=O)OC[C@@]1(CCl)O[C@@H](n2ncc(N)nc2=O)C[C@@H]1OC(=O)C(C)C [Compound 174, (2R,3S,5R)-5-(5-amino-3-oxo-1,2,4-triazin-2(3H)-yl)-2-(chloromethyl)-2-((isobutyryloxy)methyl)tetrahydrofuran-3-yl isobutyrate]
